What is called Ki is the dissociation constant of the complex between target and ligand, obtained from inhibition or displacement.

For one experiment, the target named is T1, h DHFR (Homo sapiens, UniProt P00374).
T1 construct: made in house
T1 sequence (P00374 1-187): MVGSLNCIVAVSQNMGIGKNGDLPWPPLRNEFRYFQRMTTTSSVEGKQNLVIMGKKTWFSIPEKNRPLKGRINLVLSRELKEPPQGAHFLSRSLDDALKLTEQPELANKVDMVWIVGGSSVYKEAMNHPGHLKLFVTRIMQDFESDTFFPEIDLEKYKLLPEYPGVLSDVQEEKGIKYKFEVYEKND
The experiment in a line: DHFR enzyme inhibition (standard DHFR assay), human DHFR. Format: biochemical.

A further experiment has as its target T2, Lm TS (Leishmania major, UniProt P07382).
T2 construct: made in house
The experiment in a line: biochemical. Format: biochemical.

A further experiment deals with TcPTR1 (Trypanosoma cruzi, UniProt O44029). The experiment in a line: PTR1 enzyme inhibition (dihydrofolic acid substrate, NADPH cofactor), TcPTR1. Format: biochemical.
In another experiment the target is T3, LmPTR1 (Leishmania major, UniProt Q01782).
T3 construct: made in house
T3 sequence (Q01782 1-288): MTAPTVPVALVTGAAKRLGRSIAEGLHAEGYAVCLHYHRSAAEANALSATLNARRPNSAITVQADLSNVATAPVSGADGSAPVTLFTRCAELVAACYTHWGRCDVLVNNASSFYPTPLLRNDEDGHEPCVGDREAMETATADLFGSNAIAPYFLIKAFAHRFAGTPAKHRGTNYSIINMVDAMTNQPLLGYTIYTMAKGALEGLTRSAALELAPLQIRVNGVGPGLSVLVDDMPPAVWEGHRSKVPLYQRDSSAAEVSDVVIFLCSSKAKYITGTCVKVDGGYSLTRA
The experiment in a line: biochemical. Format: biochemical. Conditions: NI means no inhibition at 190 μM; read-out: PTR1 Lm Ki.

In a further experiment the target is T4, LmDHFR (Leishmania major, UniProt P07382).
T4 construct: made in house
The experiment in a line: biochemical. Conditions: NI means no inhibition at 190 μM; read-out: DHFR Lm Ki.

The target in a further experiment is T5, hTS (Homo sapiens, UniProt P04818).
T5 construct: made in house
Put plainly: TS enzyme inhibition (standard TS assay), human TS. Format: biochemical. Conditions: NI means no inhibition at 190 μM; read-out: TS h Ki.

For the next experiment, the target named is TS. Put plainly: TS enzyme inhibition, three-value table lines (species column not resolvable). In kind it is biochemical. Particulars: species column (h or Lm) not resolvable; NI means no inhibition at 190 μM, NI marks ⋄ Δ ▴ undefined; read-out: TS Ki (first value of three-value lines).
In experiment [1] the test system is PTR1 overexpressing lines. Put plainly: Parasite growth inhibition, PTR1 overexpressing lines. In kind it is cell-based. Conditions: ratio of EC50 from PTR1 overexpressing lines to EC50 from WT lines.
Experiment [2] deals with Tripanosoma cruzi amastigote form. The experiment in a line: Intracellular growth of Tripanosoma cruzi amastigote form. Particulars: 72 h exposure, control 100. In kind it is cell-based. On the set-up: unit of the concentration uncertain.
Setting [3] is: NI means no inhibition at 190 μM, read-out: DHFR h Ki.
[4] abbreviates: NI means no inhibition at 190 μM; read-out: TS Lm Ki.
Where [5] appears, read: NI means no inhibition at 190 μM, read-out: PTR1 Tc Ki.

Where two headings read alike, the source gives them in different places.

T4 sequence (P07382 whole entry): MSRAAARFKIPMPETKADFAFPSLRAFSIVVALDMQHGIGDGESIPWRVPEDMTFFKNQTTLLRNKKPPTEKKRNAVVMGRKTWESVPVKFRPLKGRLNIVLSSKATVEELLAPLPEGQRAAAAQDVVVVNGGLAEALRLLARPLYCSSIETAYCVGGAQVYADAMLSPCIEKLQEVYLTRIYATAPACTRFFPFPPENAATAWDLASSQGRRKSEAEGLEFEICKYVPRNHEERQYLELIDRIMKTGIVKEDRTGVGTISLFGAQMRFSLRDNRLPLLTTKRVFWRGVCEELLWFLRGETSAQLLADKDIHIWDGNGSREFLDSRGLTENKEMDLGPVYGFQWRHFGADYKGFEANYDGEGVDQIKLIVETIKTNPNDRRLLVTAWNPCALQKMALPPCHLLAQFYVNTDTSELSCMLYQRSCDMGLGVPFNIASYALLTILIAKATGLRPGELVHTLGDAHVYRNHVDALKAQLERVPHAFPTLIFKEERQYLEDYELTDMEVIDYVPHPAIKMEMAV
T2 sequence (P07382 whole entry): as above
TcPTR1, sequence (O44029 entry or part of it): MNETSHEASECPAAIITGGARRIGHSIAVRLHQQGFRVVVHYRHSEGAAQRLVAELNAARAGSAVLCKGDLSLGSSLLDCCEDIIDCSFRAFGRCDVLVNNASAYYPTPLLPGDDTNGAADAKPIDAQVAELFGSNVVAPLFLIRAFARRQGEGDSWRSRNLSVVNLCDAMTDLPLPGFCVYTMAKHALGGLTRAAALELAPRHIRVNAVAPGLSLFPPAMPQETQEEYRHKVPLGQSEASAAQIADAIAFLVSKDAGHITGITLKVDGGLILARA
T5 sequence (P04818 whole entry): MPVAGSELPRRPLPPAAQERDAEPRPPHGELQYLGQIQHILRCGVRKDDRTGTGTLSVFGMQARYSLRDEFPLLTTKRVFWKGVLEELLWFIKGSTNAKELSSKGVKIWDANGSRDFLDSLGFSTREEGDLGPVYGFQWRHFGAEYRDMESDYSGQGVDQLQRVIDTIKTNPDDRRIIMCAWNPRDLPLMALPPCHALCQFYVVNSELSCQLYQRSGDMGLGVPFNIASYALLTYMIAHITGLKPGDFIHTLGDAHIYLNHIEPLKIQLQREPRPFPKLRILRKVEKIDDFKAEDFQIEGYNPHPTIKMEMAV
Experimental for Lm TS: (§1) The compounds of the invention were tested against the following enzyme library: TcPTR1, LmPTR1, LmDHFR, LcTS, EcTS, CnTS, hTS, DHFR. The proteins were all purified following the known procedures (ref). The enzymes were purified through chromatographic methods that usually require a prepurification step using a ion exchange resin, than the eluted active fractions were pooled and a second purification step follows were a hydrophobic resin and sometimes a gel filtration resin is used as the final step. The protein is characterized using Mass Spectrometry and Specific Activity and concentration is detected. Moreover Km for the substrates is useful to set up the inhibition experiments. In general the protein is stored at −80° C. and defrozen in small quantities when necessary.
Experimental for LmDHFR: as §1
Experimental for LmPTR1: The compounds of the invention were tested against the following enzyme library: TcPTR1, LmPTR1, LmDHFR, LcTS, EcTS, CnTS, hTS, DHFR.
Experimental for TcPTR1: as §1
Experimental for h DHFR: as §1
Experimental for hTS: as §1

`COC(=O)C1CCN(C(=O)c2ccc(NCc3cnc4nc(N)nc(C)c4n3)cc2)CC1`: the Ki is 10 µM at h DHFR (setting [3]); greater than 190 µM at Lm TS (setting [4]); 7 µM at TcPTR1 (setting [5]); 0.1 µM on LmPTR1; 4 µM at LmDHFR.
For `O=C(O)C1CCN(C(=O)c2ccc(NCc3cnc4cccc(C(F)(F)F)c4n3)cc2)CC1`, the Ki on h DHFR (setting [3]) was 56 µM; on hTS it was 41 µM; on Lm TS (setting [4]), greater than 190 µM; at TcPTR1 (setting [5]), 75 µM; on LmPTR1 it was 7 µM; on LmDHFR, 40 µM.
As for `Cc1cc(C(F)(F)F)cc2nc(-c3ccccc3)c(CNc3ccc(C(=O)N4CCC(C(=O)O)CC4)cc3)nc12`, the Ki is 54 µM on h DHFR (setting [3]); 13 µM at hTS; greater than 190 µM at Lm TS (setting [4]); 20 µM on TcPTR1 (setting [5]); 17 µM at LmDHFR.
Consider `CCOC(=O)c1nc2ccccc2nc1CNc1ccc(C(=O)N2CCC(C(=O)O)CC2C(=O)O)cc1` (stereo not drawn), for which the Ki on h DHFR (setting [3]) was 24 µM; on hTS, 15 µM; on Lm TS (setting [4]), greater than 190 µM; at TcPTR1 (setting [5]), 38 µM; on LmPTR1, greater than 190 µM; on LmDHFR, 75 µM.
As to `COC(=O)C1CCN(C(=O)c2ccc(NCc3nc4cc(C(F)(F)F)ccc4nc3-c3ccccc3)cc2)C(C(=O)OC)C1` (stereo not drawn), the Ki at h DHFR (setting [3]) was greater than 190 µM; on hTS, 13 µM; on Lm TS (setting [4]) it was greater than 190 µM; on TcPTR1 (setting [5]), 40 µM; on LmPTR1, greater than 190 µM; at LmDHFR, 88 µM.
For `CCOC(=O)C1CCCCN1C(=O)c1ccc(NCc2cnc3ccc(C(F)(F)F)cc3n2)cc1` (stereo not drawn), the Ki at h DHFR (setting [3]) is greater than 190 µM; on hTS, 12 µM; at Lm TS (setting [4]), 86 µM; at TcPTR1 (setting [5]), 106 µM; on LmPTR1, 6 µM; on LmDHFR, 27 µM.
In the case of `COC(=O)C1CCN(C(=O)c2ccc(N(C)Cc3cnc4nc(N)nc(N)c4n3)cc2)CC1`, the Ki was 0.8 µM at h DHFR and greater than 190 µM at Lm TS (read-out: TS Lm Ki; NI means no inhibition at 190 μM).
For `CN(Cc1cnc2nc(N)nc(N)c2n1)c1ccc(C(=O)NC(CCC(=O)O)C(=O)O)cc1` (stereo not drawn), the inhibitory constant (Ki) on TcPTR1 is 0.11 µM.
Take `COC(=O)C1CCN(C(=O)c2ccc(N(CCO)Cc3cnc4nc(N)nc(N)c4n3)cc2)CC1`: the inhibition constant (Ki) on TS is 64.5 µM.
For the compound `CN(Cc1cnc2nc(N)nc(N)c2n1)c1ccc(C(=O)N[C@@H](CCC(=O)O)C(=O)O)cc1` [Mtx, methotrexate], the RDR in experiment [1] worked out at 104.1.
`CCc1nc(N)nc(N)c1-c1ccc(Cl)cc1` [Pyr, pyrimetamine]: the RDR in experiment [1] is given as 2.3. Besides, the “% amastigotes (medium value)” value in [2] (10 (unit uncertain)) amounted to 37.4%; in experiment [2] (20 (unit uncertain)), 26.3%.

The record behind these values is US20100305134A1, “SPECIFIC INHIBITORS OF PTERIDINE REDUCTASE WITH ANTIPARASITIC ACTION” (priority 2007, published 2010).
